# Source: article PMC8878317, “Chemogenomics identifies acetyl-coenzyme A synthetase as a target for malaria treatment and prevention” (Cell Chemical Biology, 2022)
# Test system: P. falciparum 3D7 parasites
# Experiment: Metabolomic profiling of compound-treated parasites (LC/MS);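 on Metabolite data: 3-Phosphoglycerate: Log2 fold change in abundance versus untreated parasite controls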;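 on Metabolite data: Myo-Inositol: Log2 fold change in abundance versus untreated parasite controls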;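 on Metabolite data: N-Carbamoyl-L-Aspartate: Log2 fold change in abundance versus untreated parasite controls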;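 on Metabolite data: Nicotinate: Log2 fold change in abundance versus untreated parasite controls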
# Assay type: cell-based
# Parameters: Metabolite data: dTMP / Metabolite data: GMP / Metabolite data: S-Adenosyl-L-Homocysteine / Metabolite data: 1_3-Bisphosphoglyceric acid: scale not given here
# Description: The metabolite extraction protocol was performed as described elsewhere ([Allman et al., 2016]). Briefly, 1 mL of trophozoites that were magnetically purified to a concentration of 1×10^8 parasites/mL were placed into wells with 4 mL of RPMI 1640 media and allowed to recover for one hour. […] The culture was incubated for another 2.5 hr. The culture was centrifuged and quenched with 90% methanol containing 0.25 μM ^13C,^15N-Labeled-Aspartate, vortexed, and centrifuged. The supernatant was transferred to a new tube and dried for storage. Prior to analysis, the samples were resuspended to a final concentration of 1×10^8 parasites/mL in a solution of 3% methanol:water containing 1 μM chlorpropamide as an internal standard.
# The chromatographic conditions used in this experiment were performed with slight modifications from previous methods ([Zhang et al., 2018]). Briefly, a Waters XSelect HSS C18 column was used on a gradient reverse-phase chromatographic configuration with 97:3 water:methanol with 10 mM tributylamine and 15 mM acetic acid (solvent A) and methanol (solvent B). A Thermo-Scientific Exactive Plus Orbitrap mass spectrometer was operated in negative mode for the detection of the metabolites. Peak picking and integration were performed using El-Maven LC/MS data processing software. The peak data were then exported to Excel where metabolite areas were normalized to the internal standards, blank subtracted, and averaged by condition.
compound,measurement,value
CCN(CC)S(=O)(=O)c1ccc(Cl)c(C(=O)Nc2ccc3nc(C)sc3c2)c1 [MMV019721-1],Metabolite data: 1_3-Bisphosphoglyceric acid,-0.1327
same,Metabolite data: 2_3-Diphosphoglyceric acid,-0.1327
same,Metabolite data: 3-Phosphoglycerate,0.1031
same,Metabolite data: 4-Aminobutyrate,0.07842
same,Metabolite data: 4-Phosphopantothenate,-0.4201
same,Metabolite data: 4-phosphopantetheine,0.1181
same,Metabolite data: 5-aminopentanoic acid,0.1488
same,Metabolite data: 5-phosphoribosyl-1-pyrophosphate,-0.2633
same,Metabolite data: 6-Phospho-D-Gluconate,-0.03558
same,Metabolite data: ADP-D-Glucose,-0.0516
same,Metabolite data: Acetyl-CoA,-1.632
same,Metabolite data: Acetyllysine,-1.142
same,Metabolite data: Aconitate,0.3403
same,Metabolite data: CDP,0.8015
same,Metabolite data: CDP-Ethanolamine,-0.104
same,Metabolite data: CDP-choline,-0.1284
same,Metabolite data: CMP,0.9966
same,Metabolite data: CTP,0.6705
same,Metabolite data: Citrate/Isocitrate,0.04997
same,Metabolite data: Cyclic-AMP,0.2994
same,Metabolite data: Dihydroorotate,-0.5549
same,Metabolite data: FAD,0.1056
same,Metabolite data: FMN,-0.0123
same,"Metabolite data: Fructose-1,6-Bisphosphate",-0.009501
same,Metabolite data: Fumarate,0.02182
same,Metabolite data: GDP,0.2889
same,Metabolite data: GMP,0.4991
same,Metabolite data: GTP,0.06975
same,Metabolite data: Glucose-1/6-Phosphate,-0.427
same,Metabolite data: Glutathione Disulfide,0.05831
same,Metabolite data: Hexose,0.379
same,Metabolite data: Hydroxyisocaproic acid,-0.1664
same,Metabolite data: Indole,0.2013
same,Metabolite data: Ketoleucine,-0.05747
same,Metabolite data: L-arginino-succinate,0.0004889
same,Metabolite data: Lactate,0.02998
same,Metabolite data: Malate,0.2897
same,Metabolite data: Myo-Inositol,0.2086
same,Metabolite data: N-Acetyl-Glutamate,-0.6054
same,Metabolite data: N-Acetyl-L-Alanine,0.6768
same,Metabolite data: N-Acetyl-L-Ornithine,-0.7962
same,Metabolite data: N-Carbamoyl-L-Aspartate,-1.055
same,Metabolite data: NAD+,0.01132
same,Metabolite data: NADH,0.3116
same,Metabolite data: NADP+,-0.07183
same,Metabolite data: NADPH,0.3145
same,Metabolite data: Nicotinate,-0.004899
same,Metabolite data: Octulose 8/1-Phosphate,0.05155
same,Metabolite data: Orotate,-0.6691
same,Metabolite data: PD,-0.67
same,Metabolite data: PE,-0.6545
same,Metabolite data: PEEK,-0.6134
same,Metabolite data: Phenol Red,0.04234
same,Metabolite data: Pyroglutamic acid,0.6121
same,Metabolite data: S-Adenosyl-L-Homocysteine,-0.2319
same,Metabolite data: S-methyl-5'-thioadenosine,-0.02605
same,Metabolite data: SD,-0.5163
same,Metabolite data: Sedoheptulose Bisphosphate,-0.09842
same,Metabolite data: UDP,0.4977
same,Metabolite data: UDP-D-Glucose,0.03674
same,Metabolite data: UDP-D-Glucuronate,0.09403
same,Metabolite data: UDP-N-Acetyl-Glucosamine,-0.09294
same,Metabolite data: UMP,0.6643
same,Metabolite data: UTP,0.267
same,Metabolite data: a-ketoglutarate,0.1182
same,Metabolite data: acetyl-aspartate,0.3762
same,Metabolite data: arginine,0.5929
same,Metabolite data: asparagine,-0.2373
same,Metabolite data: aspartate,0.131
same,Metabolite data: biotin,-0.04985
same,Metabolite data: chlorpropamide,0.3559
same,Metabolite data: coenzyme A,0.324
same,Metabolite data: dAMP,0.02964
same,Metabolite data: dATP,0.04443
same,Metabolite data: dCDP,0.4313
same,Metabolite data: dCMP,0.6234
same,Metabolite data: dCTP,0.2767
same,Metabolite data: dGDP/ADP,0.453
same,Metabolite data: dGMP/AMP,0.01705
same,Metabolite data: dGTP/ATP,-0.2944
same,Metabolite data: dTDP,0.442
same,Metabolite data: dTMP,0.5345
same,Metabolite data: dTTP,-0.02333
same,Metabolite data: folate,0.09364
same,Metabolite data: glucono-lactone,0.02131
same,Metabolite data: glutamate,0.09413
same,Metabolite data: glutamine,0.06047
same,Metabolite data: glutathione,-0.1419
same,Metabolite data: histidine,-0.01478
same,Metabolite data: hydroxyproline/Aminolevulinate,0.7882
same,Metabolite data: isoleucine,0.1307
same,Metabolite data: leucine,0.06401
same,Metabolite data: maleic acid,0.03547
same,Metabolite data: methionine,0.07829
same,Metabolite data: nicotinamide mononucleotide,-0.2621
same,Metabolite data: orotidine-5'-phosphate,-2.856
O=C(NNC(=O)c1csnn1)c1ccc(Cl)cc1 [MMV084978-1],Metabolite data: 1_3-Bisphosphoglyceric acid,0.1496
same,Metabolite data: 2_3-Diphosphoglyceric acid,0.1496
same,Metabolite data: 3-Phosphoglycerate,0.2498
same,Metabolite data: 4-Aminobutyrate,-0.07219
same,Metabolite data: 4-Phosphopantothenate,-0.08759
same,Metabolite data: 4-phosphopantetheine,-0.1079
same,Metabolite data: 5-aminopentanoic acid,0
same,Metabolite data: 5-phosphoribosyl-1-pyrophosphate,0
same,Metabolite data: 6-Phospho-D-Gluconate,-0.01315
same,Metabolite data: ADP-D-Glucose,0.08201
same,Metabolite data: Acetyl-CoA,-3.327
same,Metabolite data: Acetyllysine,-0.5311
same,Metabolite data: Aconitate,-0.1935
same,Metabolite data: CDP,1.05
same,Metabolite data: CDP-Ethanolamine,0.1123
same,Metabolite data: CDP-choline,-0.1263
same,Metabolite data: CMP,1.555
same,Metabolite data: CTP,0.5959
same,Metabolite data: Citrate/Isocitrate,-0.25
same,Metabolite data: Cyclic-AMP,-0.2917
same,Metabolite data: Dihydroorotate,-1.467
same,Metabolite data: FAD,0.02838
same,Metabolite data: FMN,0.1073
same,"Metabolite data: Fructose-1,6-Bisphosphate",-0.1507
same,Metabolite data: Fumarate,-0.2504
same,Metabolite data: GDP,0.1753
same,Metabolite data: GMP,0.5608
same,Metabolite data: GTP,0.3192
same,Metabolite data: Glucose-1/6-Phosphate,0
same,Metabolite data: Glutathione Disulfide,-0.0421
same,Metabolite data: Hexose,0.4607
same,Metabolite data: Hydroxyisocaproic acid,0
same,Metabolite data: Indole,-0.02938
same,Metabolite data: Ketoleucine,0
same,Metabolite data: L-arginino-succinate,-0.1583
same,Metabolite data: Lactate,-0.4518
same,Metabolite data: Malate,-0.3092
same,Metabolite data: Myo-Inositol,-0.662
same,Metabolite data: N-Acetyl-Glutamate,-1.234
same,Metabolite data: N-Acetyl-L-Alanine,-0.1942
same,Metabolite data: N-Acetyl-L-Ornithine,-0.6079
same,Metabolite data: N-Carbamoyl-L-Aspartate,-1.86
same,Metabolite data: NAD+,-0.05754
same,Metabolite data: NADH,-0.03997
same,Metabolite data: NADP+,-0.01332
same,Metabolite data: NADPH,-0.02772
same,Metabolite data: Nicotinate,-0.2079
same,Metabolite data: Octulose 8/1-Phosphate,0.04337
same,Metabolite data: Orotate,-1.48
same,Metabolite data: PD,-0.5076
same,Metabolite data: PE,-0.5728
same,Metabolite data: PEEK,-0.4082
same,Metabolite data: Phenol Red,-0.09162
same,Metabolite data: Pyroglutamic acid,-0.04117
same,Metabolite data: S-Adenosyl-L-Homocysteine,-0.1413
same,Metabolite data: S-methyl-5'-thioadenosine,-0.2314
same,Metabolite data: SD,-0.5901
same,Metabolite data: Sedoheptulose Bisphosphate,-0.08586
same,Metabolite data: UDP,0.6291
same,Metabolite data: UDP-D-Glucose,0.0869
same,Metabolite data: UDP-D-Glucuronate,0.1009
same,Metabolite data: UDP-N-Acetyl-Glucosamine,-0.1998
same,Metabolite data: UMP,1.083
same,Metabolite data: UTP,0.2924
same,Metabolite data: a-ketoglutarate,-0.2708
same,Metabolite data: acetyl-aspartate,-0.01834
same,Metabolite data: arginine,0.1881
same,Metabolite data: asparagine,0.1209
same,Metabolite data: aspartate,0.4643
same,Metabolite data: biotin,-0.04446
same,Metabolite data: chlorpropamide,-1.60E-16
same,Metabolite data: coenzyme A,-0.006892
same,Metabolite data: dAMP,0.6117
same,Metabolite data: dATP,0.1596
same,Metabolite data: dCDP,-0.02418
same,Metabolite data: dCMP,0.3076
same,Metabolite data: dCTP,0.1432
same,Metabolite data: dGDP/ADP,-0.04263
same,Metabolite data: dGMP/AMP,-0.1821
same,Metabolite data: dGTP/ATP,0.1752
same,Metabolite data: dTDP,0.5413
same,Metabolite data: dTMP,0.4313
same,Metabolite data: dTTP,0.1959
same,Metabolite data: folate,-0.04496
same,Metabolite data: glucono-lactone,-0.03642
same,Metabolite data: glutamate,-0.04994
same,Metabolite data: glutamine,0.01906
same,Metabolite data: glutathione,-0.07032
same,Metabolite data: histidine,-0.03336
same,Metabolite data: hydroxyproline/Aminolevulinate,-0.01874
same,Metabolite data: isoleucine,0.003243
same,Metabolite data: leucine,-0.0173
same,Metabolite data: maleic acid,-0.282
same,Metabolite data: methionine,0.1423
same,Metabolite data: nicotinamide mononucleotide,-0.4705
same,Metabolite data: orotidine-5'-phosphate,-2.397
